Laboratory results: article PMC12004523, “Integrated Virtual Screening Approach Identifies New CYP19A1 Inhibitors” (Journal of Chemical Information and Modeling, 2025)

Columns and labels:
[1] = biological target: T1, human CYP19A1 (aromatase) (Homo sapiens, UniProt P11511); test: aromatase inhibition in yeast expressing human CYP19A1 and CPR, estradiol biosensor (yEGFP, flow cytometry); assay type: cell-based
T1 sequence (P11511 1-503): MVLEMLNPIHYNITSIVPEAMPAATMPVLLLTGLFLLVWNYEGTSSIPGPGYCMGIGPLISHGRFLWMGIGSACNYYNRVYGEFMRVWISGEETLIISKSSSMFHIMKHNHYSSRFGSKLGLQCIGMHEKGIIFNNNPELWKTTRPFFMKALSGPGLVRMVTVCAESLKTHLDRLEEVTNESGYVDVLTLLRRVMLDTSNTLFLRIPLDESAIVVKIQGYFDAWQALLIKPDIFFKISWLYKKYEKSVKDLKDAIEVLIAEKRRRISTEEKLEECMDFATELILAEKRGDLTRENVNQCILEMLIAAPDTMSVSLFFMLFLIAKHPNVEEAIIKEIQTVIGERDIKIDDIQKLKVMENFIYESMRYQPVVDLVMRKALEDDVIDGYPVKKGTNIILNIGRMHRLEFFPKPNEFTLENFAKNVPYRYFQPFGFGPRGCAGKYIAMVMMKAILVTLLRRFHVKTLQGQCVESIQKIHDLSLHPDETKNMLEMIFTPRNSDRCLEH
T1 sequence (P16435 2-677 partner): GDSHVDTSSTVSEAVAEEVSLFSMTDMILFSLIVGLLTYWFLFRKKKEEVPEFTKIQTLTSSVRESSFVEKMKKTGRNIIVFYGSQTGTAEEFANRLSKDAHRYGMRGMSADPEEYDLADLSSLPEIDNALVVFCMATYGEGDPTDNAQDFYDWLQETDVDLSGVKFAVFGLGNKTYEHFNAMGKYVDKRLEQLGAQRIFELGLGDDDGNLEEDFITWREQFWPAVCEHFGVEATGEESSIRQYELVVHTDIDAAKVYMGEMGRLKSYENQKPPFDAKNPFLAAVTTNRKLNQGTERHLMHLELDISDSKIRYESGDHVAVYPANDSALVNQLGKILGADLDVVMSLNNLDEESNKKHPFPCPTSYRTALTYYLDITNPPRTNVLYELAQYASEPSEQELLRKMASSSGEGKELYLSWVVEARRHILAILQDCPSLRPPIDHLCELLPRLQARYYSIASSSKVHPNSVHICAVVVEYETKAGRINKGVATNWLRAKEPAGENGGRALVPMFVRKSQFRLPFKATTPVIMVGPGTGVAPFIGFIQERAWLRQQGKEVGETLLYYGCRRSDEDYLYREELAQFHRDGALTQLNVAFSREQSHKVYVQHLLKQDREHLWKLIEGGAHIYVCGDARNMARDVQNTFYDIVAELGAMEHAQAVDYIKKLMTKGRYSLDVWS

[2] = biological target: T1, human CYP19A1 (aromatase); test: cell-based; design: Whole-yeast human CYP19A1/CPR testosterone aromatization; estradiol quantified by yeast biosensor fluorescence, flow cytometry, per cent of control; settings: Saccharomyces cerevisiae byMM1712; 1 uM inhibitor, testosterone substrate; read-out: % of control remaining
Description: Initially, these inhibitors were applied at a final concentration of 10 μM. […] In addition, 9a lacks a Cl atom and 9b lacks a keto group in comparison to 9. […] (a) Illustration of the enzymatic assay based on heterologous expression of human CYP19A1 used for testing candidate CYP19A1 inhibitors. […] Data are presented as mean ± SEM (n = 3).

[3] = biological target: T1, human CYP19A1 (aromatase); test: cell-based; design: Yeast expressing human CYP19A1/CPR converts testosterone; estradiol in supernatant read by yeast biosensor, flow cytometry; settings: for inhibition at 1 µM: read-out: % inhibition (1 μM); for inhibition at 10 µM: read-out: % inhibition (10 μM)
Description: A 14-h precultivation period ensured that the aromatase catalytic capacity remained consistent across all independent experiments and the inhibitor cannot act on P450 expression levels. The initial OD600 was diluted to 0.04, and then the yeast culture’s OD600 was measured and adjusted to 2.00 with fresh SDC medium. One mL of yeast solution (OD600 = 2.00) was poured into the wells of a 48-well deep-well cell culture plate (Axygen P-5 ML-48-C). Subsequently, 1 mL of SDC medium containing 120 nM testosterone and either 10 μM or 1 μM of the inhibitor was added to each well containing the yeast solution. The mixture was incubated at 30 °C and 240 rpm for 2 h. After incubation, 1.5 mL of the mixture from each well was transferred to 2 mL tubes and centrifuged at 16,000 rpm to pellet the yeast cells. Then, 1.2 mL of the supernatant was moved to 1.5 mL tubes and labeled according to the inhibitor concentration. For each sample, 1 mL of the supernatant was transferred to a different well of a 48-well deep-well plate. Next, 980 μL of SDC medium and 20 μL of the precultured byMM1984 biosensor cell solution (OD600 adjusted to 5.00 after 14 h of preculture) were added to each well. Finally, flow cytometry was performed as previously described. The entire assay was repeated in three independent experiments to calculate the mean values. […] Initially, these inhibitors were applied at a final concentration of 10 μM. […] In addition, 9a lacks a Cl atom and 9b lacks a keto group in comparison to 9. […] Several factors were considered to avoid assay artifacts.[46] The biosensor gene circuit used in this study is orthogonal to the yeast chassis,[47] ensuring no interference between the biosensor and the yeast host, thus preventing false positives.

| Compound | IC50 [1] | remaining activity at 1 µM [2] | inhibition at 1 µM [3] | inhibition at 10 µM [3] |
| --- | --- | --- | --- | --- |
| CC(NC(=O)c1cc2cc(Cl)ccc2oc1=O)c1ccc(-n2ccnc2)cc1 (racemic) [compound 9, N-(1-(4-(1H-imidazol-1-yl)phenyl)ethyl)-6-chloro-2-oxo-2H-chromene-3-carboxamide] | 271 ± 51 nM | 13 ± 2% | – | – |
| O=C(NCc1ccc(-n2ccnc2)cc1)c1cc2ccccc2oc1=O [9a] | 1040 ± 63 nM | 50 ± 1% | 51.9% | 87.4% |
| O=C(NCc1ccc(-n2ccnc2)cc1)C1=Cc2cc(Cl)ccc2OC1 [9b] | 1250 ± 190 nM | 58 ± 1% | 43.8% | 85% |
| O=C(Nc1cccc(-c2cn3cccnc3n2)c1)c1ccc(Cl)cc1Cl [compound 1] | – | – | – | 25.9% |
| CSc1ccc2nc(N3CC(Cn4ccnc4)C3)sc2c1 [compound 2] | – | – | – | 30.9% |
| O=C(Cc1c(F)cccc1Cl)N1CCC(Cn2ccnc2)CC1 [compound 4] | – | – | – | 22.8% |
| COc1ccc(-c2cn3cccnc3n2)cc1NC(=O)Nc1ccc(F)cc1 [compound 7] | – | – | – | 25.6% |
| CC1(c2ccc(Cl)cc2Cl)OCC(Cn2cncn2)O1 (stereo not shown) [compound 8, 8] | 1130 ± 158 nM | – | – | – |
| CC1(c2ccc(Cl)cc2Cl)OCC(Cn2cncn2)O1 (stereo not shown) [compound 8] | – | 57 ± 7% | 44.3% | 81.7% |
| CC(NC(=O)c1cc2cc(Cl)ccc2oc1=O)c1ccc(-n2ccnc2)cc1 (stereo not shown) [compound 9] | – | – | 89.7% | 96.7% |
| O=c1cc(Cn2ccnc2)c2cc(O)c(-c3ccccc3)cc2o1 [compound 10] | – | – | – | 38.1% |
| N#Cc1ccc(C(c2ccc(C#N)cc2)n2cncn2)cc1 [letrozole] | – | – | – | 80.4% |
